In ChEMBL document CHEMBL1201862, “PubChem BioAssay data set” (2004) one finds IC50 data, which are given here for two compounds.

The structures appear in SMILES notation. Active and inactive are the calls of the source. Cut-off read from the data, not from the text of the source: actives have a measured IC50 and inactives only a lower limit.

In this assay the target is Envelope glycoprotein gp160 (Human immunodeficiency virus 1, UniProt Q6QLK5). The assay is described as follows: inhibitors of HIV fusion peptide binding, primary screen, biochemical, uHTS, fluorescence dequenching (AID 1986).
Chain of Envelope glycoprotein gp160 (Q6QLK5 whole entry, the tested form may be a part): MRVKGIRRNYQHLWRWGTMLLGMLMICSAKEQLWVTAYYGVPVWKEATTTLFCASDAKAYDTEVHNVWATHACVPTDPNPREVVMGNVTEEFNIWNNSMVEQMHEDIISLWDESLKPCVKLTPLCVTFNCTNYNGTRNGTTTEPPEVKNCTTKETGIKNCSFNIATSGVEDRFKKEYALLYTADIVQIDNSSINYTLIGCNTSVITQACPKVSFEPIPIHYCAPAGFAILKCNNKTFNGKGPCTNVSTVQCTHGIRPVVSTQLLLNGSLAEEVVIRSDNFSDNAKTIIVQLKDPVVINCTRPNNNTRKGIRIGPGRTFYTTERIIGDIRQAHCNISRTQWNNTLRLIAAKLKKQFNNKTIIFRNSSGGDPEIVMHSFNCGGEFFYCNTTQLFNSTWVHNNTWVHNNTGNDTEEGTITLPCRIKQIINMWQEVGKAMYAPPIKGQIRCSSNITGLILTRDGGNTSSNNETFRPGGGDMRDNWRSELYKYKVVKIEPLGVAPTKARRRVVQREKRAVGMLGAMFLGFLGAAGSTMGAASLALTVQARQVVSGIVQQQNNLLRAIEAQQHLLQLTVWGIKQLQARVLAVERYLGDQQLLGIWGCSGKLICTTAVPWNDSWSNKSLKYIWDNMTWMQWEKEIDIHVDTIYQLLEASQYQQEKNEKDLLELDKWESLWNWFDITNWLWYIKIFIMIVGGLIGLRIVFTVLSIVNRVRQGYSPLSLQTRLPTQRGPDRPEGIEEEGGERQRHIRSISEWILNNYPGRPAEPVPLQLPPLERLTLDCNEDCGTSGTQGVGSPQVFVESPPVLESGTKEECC

Usually IC50 stands for the concentration needed to halve the response being measured. In the case of `COc1cc(OC)c2c(O)c3c(c(-c4c5c(c(O)c6c(OC)cc(OC)cc46)CO[C@@H](C)[C@H]5O)c2c1)[C@H](O)[C@H](C)OC3`, the 50% inhibitory concentration (IC50) is 10.1 µM (active).
The figure for `O=C(N/N=C/c1cc(Cl)cc([N+](=O)[O-])c1O)c1ccccc1NS(=O)(=O)c1cccs1` is 13.6 µM (active).
